# Reference: article PMC6874179, “Development of Macrocycle Kinase Inhibitors for ALK2 Using Fibrodysplasia Ossificans Progressiva‐Derived Endothelial Cells” (JBMR Plus, 2019)
# What was measured:
# Assay type in all cases: biochemical
# NEK3 = target: T1, NEK3 (Homo sapiens, UniProt P51956); experiment: Proqinase Kinase profiling; details: read-out: % inhibition at 100nM
# T1 construct: purchased DiscoverX
# MUSK = target: T2, MUSK (Homo sapiens, UniProt O15146); experiment: Proqinase Kinase profiling; details: read-out: % inhibition at 100nM
# T2 construct: purchased DiscoverX
# T2 sequence (O15146 24-869): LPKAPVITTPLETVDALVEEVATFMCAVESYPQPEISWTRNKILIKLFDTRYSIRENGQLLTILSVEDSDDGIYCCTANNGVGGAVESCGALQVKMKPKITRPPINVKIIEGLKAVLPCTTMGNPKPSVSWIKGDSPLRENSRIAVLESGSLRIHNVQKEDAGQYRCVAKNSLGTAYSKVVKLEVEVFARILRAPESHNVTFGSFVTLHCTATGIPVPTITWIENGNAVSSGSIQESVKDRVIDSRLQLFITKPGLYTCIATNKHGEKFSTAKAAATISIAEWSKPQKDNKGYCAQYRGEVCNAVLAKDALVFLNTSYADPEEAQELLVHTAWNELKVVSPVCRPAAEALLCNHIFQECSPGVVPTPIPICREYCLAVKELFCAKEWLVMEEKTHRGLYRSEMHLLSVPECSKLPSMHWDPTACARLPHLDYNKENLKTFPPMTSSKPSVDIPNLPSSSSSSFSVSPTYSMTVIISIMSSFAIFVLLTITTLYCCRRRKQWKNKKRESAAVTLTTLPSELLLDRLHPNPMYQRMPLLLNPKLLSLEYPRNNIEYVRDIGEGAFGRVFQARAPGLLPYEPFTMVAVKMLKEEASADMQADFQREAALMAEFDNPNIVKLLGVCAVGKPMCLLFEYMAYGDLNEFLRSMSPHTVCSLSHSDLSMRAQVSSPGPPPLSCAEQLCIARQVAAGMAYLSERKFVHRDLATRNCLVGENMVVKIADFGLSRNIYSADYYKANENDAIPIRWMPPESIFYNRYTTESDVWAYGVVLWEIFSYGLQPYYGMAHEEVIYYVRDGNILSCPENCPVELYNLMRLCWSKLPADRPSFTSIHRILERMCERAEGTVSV
# KIT_V560G = target: T3, KIT_V560G (Homo sapiens, UniProt P10721, V560G); experiment: Proqinase Kinase profiling; details: read-out: % inhibition at 100nM
# T3 construct: purchased DiscoverX
# EPHA1 = target: T4, EPHA1 (Homo sapiens, UniProt P21709); experiment: Proqinase Kinase profiling; details: read-out: % inhibition at 100nM
# T4 construct: purchased DiscoverX
# STK4 = target: T5, STK4 (Homo sapiens, UniProt Q13043); experiment: Proqinase Kinase profiling; details: read-out: % inhibition at 100nM
# T5 construct: purchased DiscoverX
# AKT1 = target: T6, AKT1 (Homo sapiens, UniProt P31749); experiment: Proqinase Kinase profiling; details: read-out: % inhibition at 100nM
# T6 construct: purchased DiscoverX
# MARK2 = target: T7, MARK2 (Homo sapiens, UniProt Q7KZI7); experiment: Proqinase Kinase profiling; details: read-out: % inhibition at 100nM
# T7 construct: purchased DiscoverX
# T7 sequence (Q7KZI7 whole entry): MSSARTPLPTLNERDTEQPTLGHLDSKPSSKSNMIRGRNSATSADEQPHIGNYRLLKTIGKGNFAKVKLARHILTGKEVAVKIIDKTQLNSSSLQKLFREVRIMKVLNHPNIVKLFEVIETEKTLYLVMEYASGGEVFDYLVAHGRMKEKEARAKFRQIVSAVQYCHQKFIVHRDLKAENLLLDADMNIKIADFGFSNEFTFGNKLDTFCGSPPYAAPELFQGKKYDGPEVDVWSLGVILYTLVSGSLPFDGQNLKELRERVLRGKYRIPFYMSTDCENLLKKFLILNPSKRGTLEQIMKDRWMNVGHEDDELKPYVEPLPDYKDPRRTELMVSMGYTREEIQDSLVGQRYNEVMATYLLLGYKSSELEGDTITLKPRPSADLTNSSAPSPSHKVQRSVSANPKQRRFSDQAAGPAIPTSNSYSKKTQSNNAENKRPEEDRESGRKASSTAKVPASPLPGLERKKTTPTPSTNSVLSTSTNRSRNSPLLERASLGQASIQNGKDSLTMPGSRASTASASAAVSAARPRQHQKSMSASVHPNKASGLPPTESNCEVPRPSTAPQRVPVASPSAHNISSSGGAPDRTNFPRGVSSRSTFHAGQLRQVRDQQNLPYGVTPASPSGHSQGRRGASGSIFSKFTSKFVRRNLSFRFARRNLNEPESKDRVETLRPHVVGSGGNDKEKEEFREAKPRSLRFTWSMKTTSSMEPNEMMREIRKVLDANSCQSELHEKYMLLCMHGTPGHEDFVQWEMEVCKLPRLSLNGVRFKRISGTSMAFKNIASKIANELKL
# MET_F1200I = target: T8, MET_F1200I (Homo sapiens, UniProt P08581, F1200I); experiment: Proqinase Kinase profiling; details: read-out: % inhibition at 100nM
# T8 construct: purchased DiscoverX
# panel of 366–468 kinases = experiment: Kinase panel selectivity; details: compound at 100nM
# Description: Figure 4 ALK2 binding and kinase profile of OD36 and OD52.
# PRKX = target: T9, PRKX (Homo sapiens, UniProt P51817); experiment: Proqinase Kinase profiling; details: read-out: % inhibition at 100nM
# T9 construct: purchased DiscoverX
# KIT_D816H = target: T10, KIT_D816H (Homo sapiens, UniProt P10721, D816H); experiment: Proqinase Kinase profiling; details: read-out: % inhibition at 100nM
# T10 construct: purchased DiscoverX
# LRRK2_G2019S = target: T11, LRRK2_G2019S (Homo sapiens, UniProt Q5S007, G2019S); experiment: Proqinase Kinase profiling; details: read-out: % inhibition at 100nM
# T11 construct: purchased DiscoverX
# CDK1_cyclinE1 = target: T12, CDK1_cyclinE1 (Homo sapiens, UniProt P06493); experiment: Proqinase Kinase profiling; details: read-out: % inhibition at 100nM
# T12 construct: purchased DiscoverX
# HIPK3 = target: T13, HIPK3 (Homo sapiens, UniProt Q9H422); experiment: Proqinase Kinase profiling; details: read-out: % inhibition at 100nM
# T13 construct: purchased DiscoverX
# RPS6KA4 = target: T14, RPS6KA4 (Homo sapiens, UniProt O75676); experiment: Proqinase Kinase profiling; details: read-out: % inhibition at 100nM
# T14 construct: purchased DiscoverX
# MST1R = target: T15, MST1R (Homo sapiens, UniProt Q04912); experiment: Proqinase Kinase profiling; details: read-out: % inhibition at 100nM
# T15 construct: purchased DiscoverX
# BMX = target: T16, BMX (Homo sapiens, UniProt P51813); experiment: Proqinase Kinase profiling; details: read-out: % inhibition at 100nM
# T16 construct: purchased DiscoverX
# PRKCB1_I = target: T17, PRKCB1_I (Homo sapiens, UniProt P05771); experiment: Proqinase Kinase profiling; details: read-out: % inhibition at 100nM
# T17 construct: purchased DiscoverX
# T17 sequence (P05771 whole entry): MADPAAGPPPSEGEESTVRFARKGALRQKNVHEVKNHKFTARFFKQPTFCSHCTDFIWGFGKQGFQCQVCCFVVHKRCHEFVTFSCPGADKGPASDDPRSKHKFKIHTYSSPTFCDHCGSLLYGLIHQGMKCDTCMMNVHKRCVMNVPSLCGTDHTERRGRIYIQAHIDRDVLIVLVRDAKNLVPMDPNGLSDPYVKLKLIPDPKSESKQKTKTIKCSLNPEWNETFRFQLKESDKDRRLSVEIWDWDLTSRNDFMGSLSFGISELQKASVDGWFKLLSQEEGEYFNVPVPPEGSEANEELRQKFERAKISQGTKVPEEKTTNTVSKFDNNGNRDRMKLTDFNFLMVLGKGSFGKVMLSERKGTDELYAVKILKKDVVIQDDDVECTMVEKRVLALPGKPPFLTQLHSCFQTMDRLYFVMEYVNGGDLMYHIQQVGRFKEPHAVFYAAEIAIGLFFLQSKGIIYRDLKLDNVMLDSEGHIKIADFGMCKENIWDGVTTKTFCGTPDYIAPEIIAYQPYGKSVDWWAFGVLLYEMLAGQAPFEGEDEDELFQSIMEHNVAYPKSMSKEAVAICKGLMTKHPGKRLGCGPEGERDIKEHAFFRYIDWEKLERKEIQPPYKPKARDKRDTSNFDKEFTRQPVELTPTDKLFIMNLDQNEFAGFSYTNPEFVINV
# SGK3 = target: T18, SGK3 (Homo sapiens, UniProt Q96BR1); experiment: Proqinase Kinase profiling; details: read-out: % inhibition at 100nM
# T18 construct: purchased DiscoverX
# CLK3 = target: T19, CLK3 (Homo sapiens, UniProt P49761); experiment: Proqinase Kinase profiling; details: read-out: % inhibition at 100nM
# T19 construct: purchased DiscoverX
# SGK1 = target: T20, SGK1 (Homo sapiens, UniProt O00141); experiment: Proqinase Kinase profiling; details: read-out: % inhibition at 100nM
# T20 construct: purchased DiscoverX
# CLK1 = target: T21, CLK1 (Homo sapiens, UniProt P49759); experiment: Proqinase Kinase profiling; details: read-out: % inhibition at 100nM
# T21 construct: purchased DiscoverX
# CHUK = target: T22, CHUK (Homo sapiens, UniProt O15111); experiment: Proqinase Kinase profiling; details: read-out: % inhibition at 100nM
# T22 construct: purchased DiscoverX
# KIT = target: T23, KIT (Homo sapiens, UniProt P10721); experiment: Proqinase Kinase profiling; details: read-out: % inhibition at 100nM
# T23 construct: purchased DiscoverX
# WEE1 = target: T24, WEE1 (Homo sapiens, UniProt P30291); experiment: Proqinase Kinase profiling; details: read-out: % inhibition at 100nM
# T24 construct: purchased DiscoverX
# NEK1 = target: T25, NEK1 (Homo sapiens, UniProt Q96PY6); experiment: Proqinase Kinase profiling; details: read-out: % inhibition at 100nM
# T25 construct: purchased DiscoverX
# TYRO3 = target: T26, TYRO3 (Homo sapiens, UniProt Q06418); experiment: Proqinase Kinase profiling; details: read-out: % inhibition at 100nM
# T26 construct: purchased DiscoverX
# CDK5_p25 = target: T27, CDK5_p25 (Homo sapiens, UniProt Q00535); experiment: Proqinase Kinase profiling; details: read-out: % inhibition at 100nM
# T27 construct: purchased DiscoverX
# MAP3K11 = target: T28, MAP3K11 (Homo sapiens, UniProt Q16584); experiment: Proqinase Kinase profiling; details: read-out: % inhibition at 100nM
# T28 construct: purchased DiscoverX
# ADRBK1 = target: T29, ADRBK1 (Homo sapiens, UniProt P25098); experiment: Proqinase Kinase profiling; details: read-out: % inhibition at 100nM
# T29 construct: purchased DiscoverX
# MAPK8 = target: T30, MAPK8 (Homo sapiens, UniProt P45983); experiment: Proqinase Kinase profiling; details: read-out: % inhibition at 100nM
# T30 construct: purchased DiscoverX
# T30 sequence (P45983 whole entry): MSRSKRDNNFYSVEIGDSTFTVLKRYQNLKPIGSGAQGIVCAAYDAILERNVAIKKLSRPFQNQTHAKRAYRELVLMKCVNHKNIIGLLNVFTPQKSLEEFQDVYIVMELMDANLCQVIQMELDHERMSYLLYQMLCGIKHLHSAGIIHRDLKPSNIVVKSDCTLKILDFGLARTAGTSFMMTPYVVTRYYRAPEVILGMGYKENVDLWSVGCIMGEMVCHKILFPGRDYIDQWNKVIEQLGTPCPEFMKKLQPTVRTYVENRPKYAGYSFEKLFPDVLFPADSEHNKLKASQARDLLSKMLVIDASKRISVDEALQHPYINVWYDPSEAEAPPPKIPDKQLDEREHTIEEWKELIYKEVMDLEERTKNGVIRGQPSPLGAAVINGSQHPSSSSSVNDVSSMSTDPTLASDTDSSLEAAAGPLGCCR
# CDK9_cyclinT1 = target: T31, CDK9_cyclinT1 (Homo sapiens, UniProt P50750); experiment: Proqinase Kinase profiling; details: read-out: % inhibition at 100nM
# T31 construct: purchased DiscoverX
# MAPKAPK3 = target: T32, MAPKAPK3 (Homo sapiens, UniProt Q16644); experiment: Proqinase Kinase profiling; details: read-out: % inhibition at 100nM
# T32 construct: purchased DiscoverX
# DYRK1B = target: T33, DYRK1B (Homo sapiens, UniProt Q9Y463); experiment: Proqinase Kinase profiling; details: read-out: % inhibition at 100nM
# T33 construct: purchased DiscoverX
# MAPK13 = target: T34, MAPK13 (Homo sapiens, UniProt O15264); experiment: Proqinase Kinase profiling; details: read-out: % inhibition at 100nM
# T34 construct: purchased DiscoverX
# ABL1_T351I = target: T35, ABL1_T351I (Homo sapiens, UniProt P00519, T315I); experiment: Proqinase Kinase profiling; details: read-out: % inhibition at 100nM
# T35 construct: purchased DiscoverX
# CSNK1G3 = target: T36, CSNK1G3 (Homo sapiens, UniProt Q9Y6M4); experiment: Proqinase Kinase profiling; details: read-out: % inhibition at 100nM
# T36 construct: purchased DiscoverX
# AKT2 = target: T37, AKT2 (Homo sapiens, UniProt P31751); experiment: Proqinase Kinase profiling; details: read-out: % inhibition at 100nM
# T37 construct: purchased DiscoverX
# MAP3K9 = target: T38, MAP3K9 (Homo sapiens, UniProt P80192); experiment: Proqinase Kinase profiling; details: read-out: % inhibition at 100nM
# T38 construct: purchased DiscoverX
# T38 sequence (P80192 whole entry): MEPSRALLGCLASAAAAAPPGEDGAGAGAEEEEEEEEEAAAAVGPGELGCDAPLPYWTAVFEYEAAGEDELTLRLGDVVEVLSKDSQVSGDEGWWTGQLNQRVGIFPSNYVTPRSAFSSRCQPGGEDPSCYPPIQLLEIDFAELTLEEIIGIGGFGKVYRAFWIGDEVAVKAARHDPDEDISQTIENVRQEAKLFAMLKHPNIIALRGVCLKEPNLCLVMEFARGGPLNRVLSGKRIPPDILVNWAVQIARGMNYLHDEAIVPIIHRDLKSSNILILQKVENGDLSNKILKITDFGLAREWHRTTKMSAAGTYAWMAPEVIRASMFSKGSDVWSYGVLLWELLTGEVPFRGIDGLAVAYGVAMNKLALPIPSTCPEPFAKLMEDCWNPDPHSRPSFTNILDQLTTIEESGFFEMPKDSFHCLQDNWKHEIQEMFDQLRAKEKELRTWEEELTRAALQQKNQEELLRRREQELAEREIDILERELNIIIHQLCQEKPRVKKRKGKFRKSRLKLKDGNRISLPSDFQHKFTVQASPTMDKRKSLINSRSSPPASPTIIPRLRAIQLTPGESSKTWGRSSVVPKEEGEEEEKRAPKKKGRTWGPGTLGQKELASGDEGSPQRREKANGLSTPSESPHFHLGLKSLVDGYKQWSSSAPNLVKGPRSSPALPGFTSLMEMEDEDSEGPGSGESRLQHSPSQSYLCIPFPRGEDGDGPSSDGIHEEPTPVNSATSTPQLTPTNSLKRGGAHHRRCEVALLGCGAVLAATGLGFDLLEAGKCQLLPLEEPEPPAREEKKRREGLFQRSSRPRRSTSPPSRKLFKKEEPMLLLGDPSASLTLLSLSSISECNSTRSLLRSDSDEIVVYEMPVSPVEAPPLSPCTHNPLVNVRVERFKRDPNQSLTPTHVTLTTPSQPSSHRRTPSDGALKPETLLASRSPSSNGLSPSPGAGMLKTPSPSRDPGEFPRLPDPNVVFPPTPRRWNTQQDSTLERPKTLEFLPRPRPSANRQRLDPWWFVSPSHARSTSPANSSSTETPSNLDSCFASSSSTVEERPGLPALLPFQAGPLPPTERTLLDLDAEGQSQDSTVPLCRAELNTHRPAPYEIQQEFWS
# ALK2 wt = ALK2 wt (Homo sapiens, UniProt Q04771); experiment: RBC HotSpot Kinase assay
# TEK_Y897S = target: T39, TEK_Y897S (Homo sapiens, UniProt Q02763, Y897S); experiment: Proqinase Kinase profiling; details: read-out: % inhibition at 100nM
# T39 construct: purchased DiscoverX
# JAK3 = target: T40, JAK3 (Homo sapiens, UniProt P52333); experiment: Proqinase Kinase profiling; details: read-out: % inhibition at 100nM
# T40 construct: purchased DiscoverX
# T40 sequence (P52333 whole entry): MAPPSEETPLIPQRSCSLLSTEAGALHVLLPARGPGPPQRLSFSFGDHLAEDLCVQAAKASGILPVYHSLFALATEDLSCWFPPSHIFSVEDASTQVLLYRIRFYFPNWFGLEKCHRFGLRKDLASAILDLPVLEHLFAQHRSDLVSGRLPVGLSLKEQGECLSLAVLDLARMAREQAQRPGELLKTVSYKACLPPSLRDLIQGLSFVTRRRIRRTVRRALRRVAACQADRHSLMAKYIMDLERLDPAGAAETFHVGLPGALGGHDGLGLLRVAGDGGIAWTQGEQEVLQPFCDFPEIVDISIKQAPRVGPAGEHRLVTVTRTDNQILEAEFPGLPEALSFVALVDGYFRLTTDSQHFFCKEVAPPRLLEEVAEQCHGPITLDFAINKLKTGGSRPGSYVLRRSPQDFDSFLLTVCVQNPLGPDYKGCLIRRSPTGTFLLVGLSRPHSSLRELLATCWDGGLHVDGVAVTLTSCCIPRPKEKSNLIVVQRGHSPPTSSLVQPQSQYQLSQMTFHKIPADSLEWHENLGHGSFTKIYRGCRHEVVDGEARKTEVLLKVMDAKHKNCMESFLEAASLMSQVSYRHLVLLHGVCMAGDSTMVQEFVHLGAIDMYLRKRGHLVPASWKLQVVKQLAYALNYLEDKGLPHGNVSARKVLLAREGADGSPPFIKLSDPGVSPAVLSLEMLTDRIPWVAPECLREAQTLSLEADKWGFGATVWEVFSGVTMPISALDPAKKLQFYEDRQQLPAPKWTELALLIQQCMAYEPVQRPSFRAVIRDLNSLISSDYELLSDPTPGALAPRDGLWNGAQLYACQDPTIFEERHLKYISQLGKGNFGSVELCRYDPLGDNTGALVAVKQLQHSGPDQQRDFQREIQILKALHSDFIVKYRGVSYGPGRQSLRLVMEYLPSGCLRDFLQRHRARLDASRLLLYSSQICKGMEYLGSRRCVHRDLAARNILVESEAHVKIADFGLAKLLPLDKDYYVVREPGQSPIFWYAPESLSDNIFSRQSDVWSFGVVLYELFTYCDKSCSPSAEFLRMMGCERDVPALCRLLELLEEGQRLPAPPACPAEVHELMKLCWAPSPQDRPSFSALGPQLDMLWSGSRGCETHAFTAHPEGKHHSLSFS
# ALK_C1156Y = target: T41, ALK_C1156Y (Homo sapiens, UniProt Q9UM73, C1156Y); experiment: Proqinase Kinase profiling; details: read-out: % inhibition at 100nM
# T41 construct: purchased DiscoverX
smiles,measurement,setting,value
Clc1cc2cc(c1)-c1cnn3ccc(nc13)NCCOCCO2 [OD36],inhibition at 0.1 µM,NEK3,22%
same,inhibition at 0.1 µM,MUSK,-1%
same,inhibition at 0.1 µM,KIT_V560G,19%
same,inhibition at 0.1 µM,EPHA1,6%
same,inhibition at 0.1 µM,STK4,11%
same,inhibition at 0.1 µM,AKT1,4%
same,inhibition at 0.1 µM,MARK2,11%
same,inhibition at 0.1 µM,MET_F1200I,4%
same,Selectivity: % of tested kinases inhibited over 50%,panel of 366–468 kinases,4.3%
same,inhibition at 0.1 µM,PRKX,17%
same,inhibition at 0.1 µM,KIT_D816H,32%
same,inhibition at 0.1 µM,LRRK2_G2019S,61%
same,inhibition at 0.1 µM,CDK1_cyclinE1,8%
same,inhibition at 0.1 µM,HIPK3,12%
same,inhibition at 0.1 µM,RPS6KA4,19%
same,inhibition at 0.1 µM,MST1R,-3%
same,inhibition at 0.1 µM,BMX,9%
same,inhibition at 0.1 µM,PRKCB1_I,7%
same,inhibition at 0.1 µM,SGK3,7%
same,inhibition at 0.1 µM,CLK3,14%
same,inhibition at 0.1 µM,SGK1,16%
same,inhibition at 0.1 µM,CLK1,7%
same,inhibition at 0.1 µM,CHUK,20%
same,inhibition at 0.1 µM,KIT,33%
same,inhibition at 0.1 µM,WEE1,15%
same,inhibition at 0.1 µM,NEK1,14%
same,inhibition at 0.1 µM,TYRO3,5%
same,inhibition at 0.1 µM,CDK5_p25,10%
same,inhibition at 0.1 µM,MAP3K11,30%
same,inhibition at 0.1 µM,ADRBK1,4%
same,inhibition at 0.1 µM,MAPK8,-6%
same,inhibition at 0.1 µM,CDK9_cyclinT1,17%
same,inhibition at 0.1 µM,MAPKAPK3,-1%
same,inhibition at 0.1 µM,DYRK1B,13%
same,inhibition at 0.1 µM,MAPK13,15%
same,inhibition at 0.1 µM,ABL1_T351I,9%
same,inhibition at 0.1 µM,CSNK1G3,3%
same,inhibition at 0.1 µM,AKT2,2%
same,inhibition at 0.1 µM,MAP3K9,13%
same,IC50,ALK2 wt,47 nM
same,inhibition at 0.1 µM,TEK_Y897S,12%
same,inhibition at 0.1 µM,JAK3,6%
same,inhibition at 0.1 µM,ALK_C1156Y,13%
Cc1cc2cc(c1)-c1cnn3ccc(nc13)NCCNC(=O)CCN(C)C2 [OD52],inhibition at 0.1 µM,NEK3,6%
same,inhibition at 0.1 µM,MUSK,-11%
same,inhibition at 0.1 µM,KIT_V560G,-21%
same,inhibition at 0.1 µM,EPHA1,-1%
same,inhibition at 0.1 µM,STK4,8%
same,inhibition at 0.1 µM,AKT1,-4%
same,inhibition at 0.1 µM,MARK2,-9%
same,inhibition at 0.1 µM,MET_F1200I,-4%
same,Selectivity: % of tested kinases inhibited over 50%,panel of 366–468 kinases,0.9%
same,inhibition at 0.1 µM,PRKX,34%
same,inhibition at 0.1 µM,KIT_D816H,-14%
same,inhibition at 0.1 µM,LRRK2_G2019S,39%
same,inhibition at 0.1 µM,CDK1_cyclinE1,-2%
same,inhibition at 0.1 µM,HIPK3,-10%
same,inhibition at 0.1 µM,RPS6KA4,-8%
same,inhibition at 0.1 µM,MST1R,-24%
same,inhibition at 0.1 µM,BMX,-34%
same,inhibition at 0.1 µM,PRKCB1_I,-5%
same,inhibition at 0.1 µM,SGK3,0%
same,inhibition at 0.1 µM,CLK3,3%
same,inhibition at 0.1 µM,SGK1,22%
same,inhibition at 0.1 µM,CLK1,6%
same,inhibition at 0.1 µM,CHUK,0%
same,inhibition at 0.1 µM,KIT,-4%
same,inhibition at 0.1 µM,WEE1,3%
same,inhibition at 0.1 µM,NEK1,-4%
same,inhibition at 0.1 µM,TYRO3,-7%
same,inhibition at 0.1 µM,CDK5_p25,-2%
same,inhibition at 0.1 µM,MAP3K11,14%
same,inhibition at 0.1 µM,ADRBK1,10%
same,inhibition at 0.1 µM,MAPK8,-9%
same,inhibition at 0.1 µM,CDK9_cyclinT1,-3%
same,inhibition at 0.1 µM,MAPKAPK3,-25%
same,inhibition at 0.1 µM,DYRK1B,-6%
same,inhibition at 0.1 µM,MAPK13,3%
same,inhibition at 0.1 µM,ABL1_T351I,-15%
same,inhibition at 0.1 µM,CSNK1G3,2%
same,inhibition at 0.1 µM,AKT2,-9%
same,inhibition at 0.1 µM,MAP3K9,4%
same,IC50,ALK2 wt,72 nM
same,inhibition at 0.1 µM,TEK_Y897S,-31%
same,inhibition at 0.1 µM,JAK3,-3%
same,inhibition at 0.1 µM,ALK_C1156Y,-6%
